From patent publication US20260042731A1, “(2,4-DICHLOROPHENOXY)ACETIC ACID ANALOGS” (CORTEVA AGRISCIENCE LLC, priority 2022, published 2026)
Where two headings read alike, the source gives them in different places.

Experiments:
[1] = system: Amaranthus rudis (AMATA), tall water hemp; assay: Postemergence herbicide evaluation, growth of Amaranthus rudis (AMATA); type: in vivo; conditions: Amaranthus tuberculatus, post-emergence, percent reduction in plant size vs untreated control, read-out: Ave. AMATA; for pest or weed control at 280 g/ha: 280 g ae/ha; for pest or weed control at 560 g/ha: 560 g ae/ha
[2] = system: glyphosate resistant Conyza canadensis (L.) (ERICA), horseweed; assay: Postemergence herbicide evaluation, growth of Conyza canadensis (ERICA); type: in vivo; conditions: Erigeron canadensis, post-emergence, percent reduction in plant size vs untreated control, read-out: Ave. ERICA; for pest or weed control at 280 g/ha: 280 g ae/ha; for pest or weed control at 560 g/ha: 560 g ae/ha
[3] = system: Abutilon theophrasti (ABUTH), velvetleaf; assay: Postemergence herbicide evaluation, growth of Abutilon theophrasti (ABUTH); type: in vivo; conditions: Abutilon theophrasti, post-emergence, percent reduction in plant size vs untreated control, read-out: AVE. ABUTH; for pest or weed control at 280 g/ha: 280 g ae/ha; for pest or weed control at 560 g/ha: 560 g ae/ha
[4] = system: Chenopodium album (CHEAL), common lambsquarters; assay: Postemergence herbicide evaluation, growth of Chenopodium album (CHEAL); type: in vivo; conditions: Chenopodium album, post-emergence, percent reduction in plant size vs untreated control, read-out: Ave. CHEAL; for pest or weed control at 280 g/ha: 280 g ae/ha; for pest or weed control at 560 g/ha: 560 g ae/ha
[5] = system: weeds ABUTH, AMATA, AMBEL, CHEAL, ERICA; assay: Postemergence herbicide evaluation, overall average % weed control across ABUTH, AMATA, AMBEL, CHEAL and ERICA; type: in vivo; conditions: post-emergence, average over five weeds, read-out: Overall Ave % Weed Control; for pest or weed control at 280 g/ha: 280 g ae/ha; for pest or weed control at 560 g/ha: 560 g ae/ha
[6] = Volatility of compounds measured by thermogravimetric analysis (TGA); type: physicochemical
[7] = system: Ambrosia artemisiifolia (AMBEL), common ragweed; assay: Postemergence herbicide evaluation, growth of Ambrosia artemisiifolia (AMBEL); type: in vivo; conditions: Ambrosia artemisiifolia, post-emergence, percent reduction in plant size vs untreated control, read-out: AVE. AMBEL; for pest or weed control at 280 g/ha: 280 g ae/ha; for pest or weed control at 560 g/ha: 560 g ae/ha

SMILES | pest or weed control at 280 g/ha ([1]; 168 h, 7 DAA) [%] | pest or weed control at 560 g/ha ([1]; 168 h, 7 DAA) [%] | pest or weed control at 280 g/ha ([1]; 336 h, 14 DAA) [%] | pest or weed control at 560 g/ha ([1]; 336 h, 14 DAA) [%] | pest or weed control at 560 g/ha ([1]; 504 h, 21 DAA) [%] | pest or weed control at 280 g/ha ([2]; 168 h, 7 DAA) [%] | pest or weed control at 560 g/ha ([2]; 168 h, 7 DAA) [%] | pest or weed control at 280 g/ha ([2]; 336 h, 14 DAA) [%] | pest or weed control at 560 g/ha ([2]; 336 h, 14 DAA) [%] | pest or weed control at 560 g/ha ([2]; 504 h, 21 DAA) [%] | pest or weed control at 280 g/ha ([3]; 168 h, 7 DAA) [%] | pest or weed control at 560 g/ha ([3]; 168 h, 7 DAA) [%] | pest or weed control at 280 g/ha ([3]; 336 h, 14 DAA) [%] | pest or weed control at 560 g/ha ([3]; 336 h, 14 DAA) [%] | pest or weed control at 560 g/ha ([3]; 504 h, 21 DAA) [%] | pest or weed control at 280 g/ha ([4]; 168 h, 7 DAA) [%] | pest or weed control at 560 g/ha ([4]; 168 h, 7 DAA) [%] | pest or weed control at 280 g/ha ([4]; 336 h, 14 DAA) [%] | pest or weed control at 560 g/ha ([4]; 336 h, 14 DAA) [%] | pest or weed control at 560 g/ha ([4]; 504 h, 21 DAA) [%] | other results
C=CCONC(=O)COc1ccc(Cl)cc1Cl [Compound D33] | 92.5 | 92 | 92.5 | 92.5 | 92.5 | 82.5 | 77.5 | 99.5 | 100 | 97.5 | 85 | 92.5 | 98.5 | 99.5 | 100 | 82.5 | 46.5 | 98 | 92.5 | 99 | pest or weed control at 280 g/ha ([1]; 504 h, 21 DAA): 95%; pest or weed control at 280 g/ha ([2]; 504 h, 21 DAA): 99.5%; pest or weed control at 280 g/ha ([3]; 504 h, 21 DAA): 100%; pest or weed control at 280 g/ha ([4]; 504 h, 21 DAA): 96.5%; pest or weed control at 280 g/ha ([5]; 168 h, 7 DAA): 85.7%; pest or weed control at 560 g/ha ([5]; 168 h, 7 DAA): 77.7%; pest or weed control at 280 g/ha ([5]; 336 h, 14 DAA): 96.9%; pest or weed control at 560 g/ha ([5]; 336 h, 14 DAA): 94.9%; pest or weed control at 280 g/ha ([5]; 504 h, 21 DAA): 98.2%; pest or weed control at 560 g/ha ([5]; 504 h, 21 DAA): 97.8%; TGA Data (rate of weight loss, volatility) [6]: 0.34 µg/min; pest or weed control at 280 g/ha ([7]; 168 h, 7 DAA): 86%; pest or weed control at 560 g/ha ([7]; 168 h, 7 DAA): 80%; pest or weed control at 280 g/ha ([7]; 336 h, 14 DAA): 96%; pest or weed control at 560 g/ha ([7]; 336 h, 14 DAA): 90%; pest or weed control at 280 g/ha ([7]; 504 h, 21 DAA): 100%; pest or weed control at 560 g/ha ([7]; 504 h, 21 DAA): 100%
O=C(COc1ccc(Cl)cc1Cl)NOC1CCCCO1 (stereo not drawn) [Compound D15] | 75 | 85 | 85 | 95 | 97.5 | 72.5 | 80 | 97 | 95 | 100 | 70 | 80 | 87.5 | 94.5 | 99.5 | 77.5 | 82.5 | 94 | 97.5 | 97.5 | pest or weed control at 286 g/ha ([1]; 504 h, 286 g ae/ha, 21 DAA): 72.5%; pest or weed control at 286 g/ha ([2]; 504 h, 286 g ae/ha, 21 DAA): 99.5%; pest or weed control at 286 g/ha ([3]; 504 h, 286 g ae/ha, 21 DAA): 99.5%; pest or weed control at 286 g/ha ([4]; 504 h, 286 g ae/ha, 21 DAA): 85%; pest or weed control at 280 g/ha ([5]; 168 h, 7 DAA): 76%; pest or weed control at 560 g/ha ([5]; 168 h, 7 DAA): 83.5%; pest or weed control at 280 g/ha ([5]; 336 h, 14 DAA): 89.2%; pest or weed control at 560 g/ha ([5]; 336 h, 14 DAA): 94.9%; pest or weed control at 286 g/ha ([5]; 504 h, 286 g ae/ha, 21 DAA): 91.3%; pest or weed control at 560 g/ha ([5]; 504 h, 21 DAA): 98.9%; TGA Data (rate of weight loss, volatility) ([6]; value marked *: decomposition of the material was observed): 6.9* μg/min; pest or weed control at 280 g/ha ([7]; 168 h, 7 DAA): 85%; pest or weed control at 560 g/ha ([7]; 168 h, 7 DAA): 90%; pest or weed control at 280 g/ha ([7]; 336 h, 14 DAA): 82.5%; pest or weed control at 560 g/ha ([7]; 336 h, 14 DAA): 92.5%; pest or weed control at 286 g/ha ([7]; 504 h, 286 g ae/ha, 21 DAA): 100%; pest or weed control at 560 g/ha ([7]; 504 h, 21 DAA): 100%
O=C(COc1ccc(Cl)cc1Cl)Oc1ccccn1 [Compound E11] | 70 | 85 | 90 | 93.5 | 90 | 82.5 | 85 | 97.5 | 90 | 100 | 65 | 82.5 | 85 | 97.5 | 100 | 77.5 | 80 | 97.5 | 98 | 100 | pest or weed control at 280 g/ha ([1]; 504 h, 21 DAA): 67.5%; pest or weed control at 280 g/ha ([2]; 504 h, 21 DAA): 100%; pest or weed control at 280 g/ha ([3]; 504 h, 21 DAA): 98.5%; pest or weed control at 280 g/ha ([4]; 504 h, 21 DAA): 92.5%; pest or weed control at 280 g/ha ([5]; 168 h, 7 DAA): 74.5%; pest or weed control at 560 g/ha ([5]; 168 h, 7 DAA): 82.5%; pest or weed control at 280 g/ha ([5]; 336 h, 14 DAA): 88%; pest or weed control at 560 g/ha ([5]; 336 h, 14 DAA): 95.6%; pest or weed control at 280 g/ha ([5]; 504 h, 21 DAA): 91.7%; pest or weed control at 560 g/ha ([5]; 504 h, 21 DAA): 98%; TGA Data (rate of weight loss, volatility) [6]: 0.4827 µg/min; pest or weed control at 280 g/ha ([7]; 168 h, 7 DAA): 77.5%; pest or weed control at 560 g/ha ([7]; 168 h, 7 DAA): 80%; pest or weed control at 280 g/ha ([7]; 336 h, 14 DAA): 70%; pest or weed control at 560 g/ha ([7]; 336 h, 14 DAA): 90%; pest or weed control at 280 g/ha ([7]; 504 h, 21 DAA): 100%; pest or weed control at 560 g/ha ([7]; 504 h, 21 DAA): 100%
